Measurements published in US20050171101A1 (Fujisawa Pharmaceutical Co. Ltd., priority 2002, published 2005).
pIC50: −log10 of the molar value. Structures can show the parent of a compound that is named as a salt.

Target: recombinant human PARP (Homo sapiens, UniProt P09874)
Test: PARP inhibitory activity (In vitro assay)
Format: biochemical
Conditions: 32P-NAD, 0.05 mM NAD, activated DNA, pH8.0, 15 minutes at room temperature
Procedure: PARP inhibitory activity (In vitro assay)
The recombinant human PARP (5.3 mg protein/ml) was incubated with a test compound in a 100 μl reaction buffer containing an indicated concentration of 1 mCi/ml ^32P-NAD, 50 mM Tris-HCl, 25 mM MgCl2, 1 mM DTT (dithiothreitol), 0.05 mM NAD (nicotinamide adenine dinucleotide) and 1 mg/ml activated DNA, pH8.0. Incubation was carried out for 15 minutes at a room temperature, and the reaction was stopped by addition of 200 μl of ice-cold 20% tricholoroacetic acid followed by rapid filtration through GF/B filters. The […] was treated with scintillation fluid and acid-insoluble counts were measured for quantification of unit activity. PARP inhibitory activity was calculated by using the following formula: PARP inhibitory activity (%)=[1-(count obtained with test compound)/(count obtained with vehicle only)]×100

recombinant human PARP, sequence (P09874 whole entry): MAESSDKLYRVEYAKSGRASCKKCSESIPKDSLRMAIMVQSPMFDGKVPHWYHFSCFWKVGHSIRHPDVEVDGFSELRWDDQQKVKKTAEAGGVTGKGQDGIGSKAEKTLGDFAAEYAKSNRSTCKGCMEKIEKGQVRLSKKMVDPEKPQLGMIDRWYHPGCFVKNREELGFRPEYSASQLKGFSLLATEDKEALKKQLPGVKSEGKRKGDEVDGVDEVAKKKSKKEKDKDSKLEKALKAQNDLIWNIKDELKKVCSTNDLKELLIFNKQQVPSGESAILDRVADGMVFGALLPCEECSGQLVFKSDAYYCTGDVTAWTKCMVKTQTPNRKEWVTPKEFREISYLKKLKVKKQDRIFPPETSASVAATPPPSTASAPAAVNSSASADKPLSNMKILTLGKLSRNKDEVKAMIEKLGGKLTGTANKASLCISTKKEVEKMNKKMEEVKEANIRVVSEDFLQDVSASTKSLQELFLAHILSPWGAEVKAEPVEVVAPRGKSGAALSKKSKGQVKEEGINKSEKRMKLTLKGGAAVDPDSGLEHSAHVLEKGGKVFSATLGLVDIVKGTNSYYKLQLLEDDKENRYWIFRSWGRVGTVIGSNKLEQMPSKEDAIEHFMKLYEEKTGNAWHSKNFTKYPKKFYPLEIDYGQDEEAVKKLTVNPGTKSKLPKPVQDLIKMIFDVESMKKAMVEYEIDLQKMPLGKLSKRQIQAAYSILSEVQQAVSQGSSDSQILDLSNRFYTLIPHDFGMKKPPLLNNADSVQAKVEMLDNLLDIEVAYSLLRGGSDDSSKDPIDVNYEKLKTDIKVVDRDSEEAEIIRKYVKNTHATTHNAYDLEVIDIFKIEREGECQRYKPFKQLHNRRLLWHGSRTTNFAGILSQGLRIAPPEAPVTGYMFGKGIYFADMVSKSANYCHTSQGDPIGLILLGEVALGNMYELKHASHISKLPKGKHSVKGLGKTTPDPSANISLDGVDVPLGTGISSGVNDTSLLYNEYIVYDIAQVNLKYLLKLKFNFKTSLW

Compound | pIC50
Cc1ccc(C2CCN(Cc3ccc4c5c(c(=O)[nH]c4c3)CCCC5)CC2)cc1 [Example 30, 3-{[4-(4-methylphenyl)-1-piperidyl]methyl}-7,8,9,10-tetrahydro-6(5H)-phenanthridinone hydrochloride] | > 7.00
O=c1[nH]c2cc(CN3CCC(O)(c4ccccc4)CC3)ccc2c2c1CCCC2 [Example 35, 3-[(4-hydroxy-4-phenyl-1-piperidyl)methyl]-7,8,9,10-tetrahydro-6(5H)-phenanthridinone hydrochloride] | > 7.00
O=c1[nH]c2cc(CN3CCCCC3)ccc2c2ccccc12 [Example 60, 3-(1-piperidylmethyl)-6(5H)-phenanthridinone] | > 7.00
O=c1[nH]c2c(Oc3ccccn3)cccc2c2c1CCCC2 [Example 42] | > 7.00
O=c1[nH]c2cc(CN3CCN(c4ccc(Cl)cn4)CC3)ccc2c2ccccc12 [Example 52, 3-{[4-(5-chloro-2-pyridyl)-1-piperazinyl]methyl}-6(5H)-phenanthridinone dihydrochloride] | > 7.00
O=c1[nH]c2ccc(CCCN3CC=C(c4ccc(F)cc4)CC3)cc2c2ccccc12 [Example 2, 2-{3-[4-(4-fluorophenyl)-3,6-dihydro-1 (2H)-pyridyl]propyl}-6(5H)-phenanthridinone] | > 7.00
O=c1[nH]c2cc(CN3CC=C(c4ccc(Cl)cc4)CC3)ccc2c2c1CCCC2 [Example 15, 3-{[4-(4-Chlorophenyl)-3,6-dihydro-1(2H)-pyridyl]methyl}-7,8,9,10-tetrahydro-6(5H)-phenanthridinone] | > 7.00
Cc1ccc(C2CCN(Cc3ccc4c(c3)[nH]c(=O)c3ccccc34)CC2)nc1 [Example 63, 3-{[4-(5-methyl-2-pyridyl)-1-piperidyl]methyl}-6(5H)-phenanthridinone] | > 7.00
